US5484803A, “Transcutaneous in vivo activation of photosensitive agents in blood” (priority 1995, dated 1996)

Legend:
mouse blood = test: Blood parameters two weeks after treatment (Coulter Counter); assay type: in vivo, Balb/c mice; details: for HB (hemoglobin) / Hct (hematocrit) / MCV / PLT (platelet count) / RBC / WBC: 2 weeks
Experimental: Blood Tests: Blood was drawn into syringes containing 50 μl of heparin (1000 units/ml saline). Blood samples (0.45 ml) from at least 1 mouse per time point were sent to the Diagnostic Laboratory at the University Hospital, University of British Columbia site, for analysis by a Coulter Counter. Blood morphology was determined on blood films prepared from selected samples by a laboratory technologist.
Six Balb/c mice (22±1 g weight) were prepared as described above. Five mice were injected twice (24 hour interval) with BPD from DMSO stock (not liposomal BPD) and exposed to light 1 hour after the injection. One mouse was not injected but was exposed to light (light-only control). During the first treatment the mice were injected with 15 μg BPD/mouse in 200 μl of PBS. During the second treatment the mice were injected with 20 μg BPD/mouse (0.9 mg/kg). A single mouse was used as a control for both treatments.
Immediately post-injection (on both occasions) the animals were kept for 1 hour in the dark and then were placed in individual plastic containers (9×4×5 cm), which were placed in the light box and exposed to light. The individual mice were removed from the light box at different intervals: 15, 30, 45, 60 and 75 min, respectively. The light doses delivered at the surface of the skin were 27, 54, 81, 108 and 135 J/cm^2, respectively. On the second occasion the same light doses were used; however, mice receiving higher light doses on day 1 received lower doses on day 2. The control mouse was exposed to light for 60 min on both occasions. During light exposure, the mice were constantly observed for signs of discomfort or itching. After the second light exposure, the mice were observed daily for a period of 2 weeks for appearance of the skin and general pattern of behavior.
Two weeks post-treatment blood samples were obtained from each mouse by a heart puncture, under halothane anesthesia. Then the mice were sacrificed and autopsied. Their spleen, liver and kidneys were weighed.

[1] = In vitro photodegradation of BPD in mouse blood; assay type: physicochemical; details: for photodegraded BPD, Dose / Photodegraded BPD: in vitro
Experimental: Determination of BPD Concentration in Plasma: Plasma samples were obtained by centrifugation of blood collected from mice and stored frozen at -20° C. until assessment. The concentration of BPD in the samples was determined by fluorometry using a Jasco Model FP-770 (Japan Spectroscopic Co.) spectrofluorometer and a microcuvette (Far UV Quartz Cell, Starna Cells Inc.). Excitation and emission wavelengths were 439 and 699 nm, respectively. Plasma samples were diluted 20-fold with PBS containing 1% Triton® X-100 immediately before fluorescence was determined. BPD standards were prepared in 5% mouse plasma in PBS with 1% Triton® X-100. Under these conditions the relationship between the concentration of BPD and units of fluorescence was linear (correlation coefficient >0.99) for concentrations between 0.1 ng/ml and 1 μg/ml. The limit of detection was below 0.1 ng/ml sample which corresponded to 2 ng/ml plasma. […] The 699 nm fluorescence peak of BPD was virtually free from any interference.
In order to assess the amount of light penetrating the tissues, in vitro experiments with mouse blood were carried out. The same light source was used, therefore the spectrum of light was the same. The light doses in this experiment were selected to mimic the doses in the in vivo experiments.
Liposomal BPD was added to freshly obtained heparinized mouse blood to achieve a concentration of 1 μg/ml, following which […] aliquots of blood were dispensed into 35 mm diameter petri dishes, which were placed in the light box and exposed to red light. The dishes were irradiated in the light box from below only. The intensity of light was 35 mW/cm^2. Three different light doses, entailing exposure of 30 min, 1 hour and 1.5-hour, were 63, 126 and 189 J/cm^2, respectively. Duplicate dishes were kept covered with aluminum foil. Immediately following light exposure, the blood was collected from the dishes. Then the plasma was separated by centrifugation. The control unexposed samples were processed at time points corresponding to the light exposed samples.
The concentration of BPD in plasma separated from light-exposed and unexposed blood was determined by fluorescence. About 51-83% of BPD was degraded by the ranges of light doses used.

mice = test: Tolerability of light exposure starting 15 min post-injection (lethality); assay type: in vivo, Balb/c mice
Experimental: In order to determine the level of BPD in plasma during the light treatment, the following experiment was carried out. Fourteen Balb/c mice (22±1 g of weight) were injected with liposomal BPD at 20 μg/mouse (0.9 mg/kg) in 200 μl PBS per mouse. Blood samples were obtained by heart puncture at various time intervals between 15 min and 2 hours post-injection. Exposure to light started at 15 min post-injection for some mice. The BPD concentration in plasma was determined as described above.
At 2 hours post-injection, i.e., at the time point corresponding to the end of 1 hour exposure to light (108 J/cm^2) in the first example, the plasma level of BPD was 2.44 μg/ml. At the beginning of exposure to light, in the same example, the plasma level of BPD was about 4 μg/ml. To further evaluate skin photosensitivity at these low levels, mice were exposed to light at an earlier time post-injection, i.e., at 15 min, when the level of BPD in plasma was 6.32 μg/ml.

[2] = in vivo; cited from earlier work
[3] = mouse 1, light 27 then 135 J/cm^2
[4] = mouse 2, light 54 then 108 J/cm^2
[5] = mouse 3, light 81 then 81 J/cm^2
[6] = mouse 4, light 108 then 54 J/cm^2
[7] = mouse 5, light 135 then 27 J/cm^2

## benzoprophyrin derivative monoacid ring A [BPD]
Mouse blood; [3]
  HB (hemoglobin): 122 g/L
  Hct (hematocrit): 0.352
  MCV: 49.5 fL
  PLT (platelet count): 328 10^6 /ml
  RBC: 7.11 10^9 /ml
  WBC: 4.0 10^6 /ml
Mouse blood; [4]
  HB (hemoglobin): 126 g/L
  Hct (hematocrit): 0.382
  MCV: 49.2 fL
  PLT (platelet count): 274 10^6 /ml
  RBC: 7.76 10^9 /ml
Mouse blood; mouse 2, light 54 then 108 J/cm^2, platelet aggregate may contribute
  WBC: 14.7 10^6 /ml
Mouse blood; [5]
  HB (hemoglobin): 124 g/L
  Hct (hematocrit): 0.365
  MCV: 48.9 fL
  PLT (platelet count): 119 10^6 /ml
  RBC: 7.46 10^9 /ml
  WBC: 8.2 10^6 /ml
Mouse blood; [6]
  HB (hemoglobin): 123 g/L
  Hct (hematocrit): 0.364
  MCV: 47.6 fL
  PLT (platelet count): 438 10^6 /ml
  RBC: 7.65 10^9 /ml
  WBC: 7.6 10^6 /ml
Mouse blood; [7]
  HB (hemoglobin): 108 g/L
  Hct (hematocrit): 0.316
  MCV: 48.8 fL
  PLT (platelet count): 134 10^6 /ml
  RBC: 6.47 10^9 /ml
  WBC: 2.9 10^6 /ml
Mouse blood; two weeks post-treatment
  all blood values (Tables 3 and 4): within normal ranges
[1]; 0 h, no light, BPD 1 μg/ml blood
  BPD concentration in plasma separated from blood: 0.760 µg/mL
[1]; 1 1/2 h, 189 J/cm^2
  BPD concentration in plasma separated from blood: 0.144 µg/mL
[1]; 1 1/2 h, no light
  BPD concentration in plasma separated from blood: 0.830 µg/mL
[1]; 1/2 h, 63 J/cm^2
  BPD concentration in plasma separated from blood: 0.394 µg/mL
[1]; 1/2 h, no light
  BPD concentration in plasma separated from blood: 0.806 µg/mL
[1]; 63-189 J/cm^2, about
  BPD degraded in vitro: 51-83%
[1]; 1 h, 126 J/cm^2
  BPD concentration in plasma separated from blood: 0.220 µg/mL
[1]; 1 h, no light
  BPD concentration in plasma separated from blood: 0.810 µg/mL
[1]; 63 J/cm^2
  photodegraded BPD, Dose: 0.412 µg/mL
[1]; 63 J/cm^2, 1/2 h, 30 min
  Photodegraded BPD: 51%
[1]; 126 J/cm^2
  photodegraded BPD, Dose: 0.590 µg/mL
[1]; 126 J/cm^2, 1 h
  Photodegraded BPD: 73%
[1]; 189 J/cm^2
  photodegraded BPD, Dose: 0.686 µg/mL
[1]; 189 J/cm^2, 1 1/2 h, 90 min
  Photodegraded BPD: 83%
mice; light exposure of about 50 J/cm^2 whole body irradiation, 0.9 mg/kg, 15 min
  starting plasma level of BPD lethal to mice: about 6.5 μg/ml
mice; light from 15 min post-injection
  discomfort on light exposure: almost immediately uncomfortable
mice; liposomal BPD 0.9 mg/kg, light from 15 min post-injection, 54 J/cm^2
  death of mice on light exposure: died after 30 min of exposure
[2]
  time of accumulation of BPD in the skin: up to 5 hours
